The text below walks through data of US20240228499A1, “MASP-2 INHIBITORS AND METHODS OF USE” (Omeros Corporation, priority 2022, published 2024).

The target of one assay is T1, human a-thrombin (Homo sapiens, UniProt P00734).
T1 construct: enzyme (human a-thrombin (BioPharm® Lab.)); purchased BioPharm Lab
Nature of the assay: Enzymatic assay for thrombin (fluorogenic peptide substrate Boc-VPR-AMC). The settings on record: room temperature, 20 mM Hepes pH 7.4, 20 min. Format: biochemical. As for the experimental part: The thrombin assay utilizes a fluorogenic peptide substrate (Boc-VPR-AMC (R&D Systems) and was run at room temperature in an assay buffer containing 20 mM Hepes, pH 7.4, 140 mM NaCl and 0.1% Tween 20. Assay parameters were adjusted such that the assay was linear with respect to time, enzyme, and substrate concentrations. Under these optimized assays conditions, IC50 values were equivalent to Ki values, except in a few cases of “tight binding” inhibitors. Cases of “tight binding” or possible “slow binding” inhibitors were handled by the methods described in Copeland R.A. (2013) Evaluation of Enzyme Inhibitors in Drug Discovery. 2nd Ed. John Wiley and Sons, Inc., Chapters 5-7.
The thrombin assay protocol was carried out as follows. Test compounds were serially diluted in DMSO and then 100 nL of each dilution was transferred to the assay plate(s). 10 μL of Assay Buffer was added, followed by 15 μL of enzyme (human a-thrombin (BioPharm® Lab.)) in assay buffer. 15 μL of substrate in assay buffer was then added and the sample mixed to start the reaction. After 20 min at room temperature, 15 μL of a stop solution (0.1 M acetic acid) was added, the sample was mixed, and the plates were read on a SpectraMax® i3× Microplate Reader with the data exported as Excel files. Each assay plate included a “no inhibitor” (DMSO only) control, a “no enzyme” control, and a reference inhibitor control. % Activity values=100*(ave. test comp. fluorescence−ave. “no enz” fluorescence)/(ave. “DMSO only” fluorescence−ave. “no enz” fluorescence). IC50 and Ki values were very reproducible, with values falling well within +2-fold.

In a further assay the target is T2, MASP-2 (CCP1-CCP2-SP) (Homo sapiens, UniProt O00187).
T2 construct: 15 μL of Enzyme MASP-2 (CCP1-CCP2-SP) in Assay Buffer
T2 sequence (O00187 287-686 limits assumed): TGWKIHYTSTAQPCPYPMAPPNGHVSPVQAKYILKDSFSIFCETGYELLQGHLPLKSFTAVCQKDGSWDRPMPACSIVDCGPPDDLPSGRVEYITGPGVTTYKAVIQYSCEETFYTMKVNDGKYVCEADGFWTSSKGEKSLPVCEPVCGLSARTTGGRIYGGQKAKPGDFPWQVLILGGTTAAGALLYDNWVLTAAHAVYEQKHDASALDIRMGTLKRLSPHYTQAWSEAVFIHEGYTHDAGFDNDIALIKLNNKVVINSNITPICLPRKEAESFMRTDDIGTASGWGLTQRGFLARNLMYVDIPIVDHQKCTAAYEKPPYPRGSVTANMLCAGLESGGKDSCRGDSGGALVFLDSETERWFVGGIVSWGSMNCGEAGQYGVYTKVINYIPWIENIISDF
Kind of assay: Enzymatic assay for MASP-2 inhibitory activity (fluorogenic substrate). The settings on record: room temperature, 20 mM Hepes pH 7.4, 20 min. Format: biochemical. How it is done:
The MASP-2 assay utilizes a fluorogenic substrate, based on the cleavage site for its natural substrate C2. The assay was run at room temperature in an assay buffer containing 20 mM HEPES, pH 7.4, 140 mM NaCl and 0.1% Tween 20. Assay parameters were adjusted such that the assay was linear with respect to time, enzyme, and substrate concentrations. Under the optimized assays conditions, IC50 values were equivalent to Ki values, except in the few cases of “tight binding” inhibitors. Cases of “tight binding” or possible “slow binding” inhibitors were handled by the methods described in Copeland R. A. (2013) Evaluation of Enzyme Inhibitors in Drug Discovery. 2nd Ed., John Wiley and Sons, Inc., Chapters 5-7.
The MASP-2 assay protocol was carried out as follows. Test compounds were serially diluted in DMSO and then 100 nL of each dilution was transferred to the assay plate(s). 10 μL of Assay Buffer was added, followed by 15 μL of Enzyme MASP-2 (CCP1-CCP2-SP) in Assay Buffer. 15 μL of Substrate in Assay Buffer was then added and the mixture was mixed to start the reaction. After 20 min at room temperature, 15 μL of a stop solution (0.1 M acetic acid) was added, the sample was mixed, and the plates were read on a SpectraMax i3× Microplate Reader with the data exported as an Excel file. Each assay plate included a “no inhibitor” (DMSO only) control, a “no enzyme” control, and a reference inhibitor control. % Activity values=100*(average test comp. fluorescence−average “no enzyme” fluorescence)/(average “DMSO only” fluorescence−average “no enzyme” fluorescence). IC50 and Ki replicate values were very reproducible, with values well within +2-fold.

Where a name gives a salt, the structure may show the parent alone.

For orientation: Ki means the dissociation constant of the complex between target and ligand, obtained from inhibition or displacement. Read a low Ki as a stronger hold on the target. Consider `Cc1nc(N)ccc1CNC(=O)[C@@H]1CCc2ncc(NCc3cccc(F)c3C)c(=O)n21` [Compound 63], for which the results for the Ki on human a-thrombin and at MASP-2 (CCP1-CCP2-SP) were 500 to 2500 nM and less than 500 nM, respectively.

Turning to `N#Cc1cc(F)cc(CNc2cnc3n(c2=O)[C@H](C(=O)N[C@@H]2CCc4nc(N)ccc42)CC3)c1` [Compound 93, (S)-N-((R)-2-amino-6,7-dihydro-5H-cyclopenta[b]pyridin-5-yl)-3-((3-cyano-5-fluorobenzyl)amino)-4-oxo-4,6,7,8-tetrahydro-pyrrolo[1,2-a]pyrimidine-6-carboxamide], the Ki is 500 to 2500 nM at human a-thrombin and less than 500 nM at MASP-2 (CCP1-CCP2-SP).

On to `Cc1nc(N)ccc1CNC(=O)[C@@H]1CCc2ncc(NCc3cc(OC(F)(F)F)ccc3F)c(=O)n21` [Compound 41, (S)-N-((6-amino-2-methylpyridin-3-yl)methyl)-3-((2-fluoro-5-(trifluoromethoxy)benzyl)amino)-4-oxo-4,6,7,8-tetrahydro-pyrrolo[1,2-a]pyrimidine-6-carboxamide, di-trifluoroacetate], for which the values for the Ki at human a-thrombin and on MASP-2 (CCP1-CCP2-SP) were 500 to 2500 nM and less than 500 nM, respectively.

Take `Cc1nc(N)ccc1CNC(=O)[C@@H]1CCc2ncc(NCc3cc(F)cc(C(F)(F)F)c3)c(=O)n21` [Compound 47, (S)-N-((6-amino-2-methylpyridin-3-yl)methyl)-3-((3-fluoro-5-(trifluoromethyl)benzyl)amino)-4-oxo-4,6,7,8-tetrahydro-pyrrolo[1,2-a]pyrimidine-6-carboxamide, di-trifluoroacetate]: the Ki on human a-thrombin is 500 to 2500 nM; on MASP-2 (CCP1-CCP2-SP), less than 500 nM.

As to `Cc1nc(N)ccc1CNC(=O)[C@@H]1CCc2ncc(NCc3cccc(C#N)c3)c(=O)n21` [Compound 73, (S)-N-((6-amino-2-methylpyridin-3-yl)methyl)-3-((3-cyanobenzyl)amino)-4-oxo-4,6,7,8-tetrahydropyrrolo[1,2-a]pyrimidine-6-carboxamide], the Ki on human a-thrombin is 500 to 2500 nM; at MASP-2 (CCP1-CCP2-SP), less than 500 nM.

As for `Nc1ccc2c(n1)CC[C@H]2NC(=O)[C@@H]1CCc2ncc(NCc3cccc(C(F)F)c3)c(=O)n21` [Compound 84, (S)-N-((R)-2-amino-6,7-dihydro-5H-cyclopenta[b]pyridin-5-yl)-3-((3-(difluoromethyl)benzyl)amino)-4-oxo-4,6,7,8-tetrahydro-pyrrolo[1,2-a]pyrimidine-6-carboxamide], the Ki on human a-thrombin was 500 to 2500 nM; at MASP-2 (CCP1-CCP2-SP) it was less than 500 nM.

Consider `Cc1cccc(C(C)Nc2cnc3n(c2=O)[C@H](C(=O)NCc2cc4c(s2)CNC4)CC3)c1` (single isomer, unassigned) [Compound 69, di-trifluoroacetate], for which the Ki on human a-thrombin was 500 to 2500 nM; at MASP-2 (CCP1-CCP2-SP), less than 500 nM.

As for `Cc1nc(N)ccc1CNC(=O)[C@@H]1CCc2ncc(NCc3cccc(Cl)c3)c(=O)n21` [Compound 58], the Ki on human a-thrombin is 500 to 2500 nM; on MASP-2 (CCP1-CCP2-SP), less than 500 nM.

Consider `Cc1nc(N)ccc1CNC(=O)[C@@H]1CCc2ncc(NCc3cccc(C(=O)O)c3)c(=O)n21` [Compound 13, (S)-3-(((6-(((6-amino-2-methylpyridin-3-yl)methyl)carbamoyl)-4-oxo-4,6,7,8-tetrahydropyrrolo[1,2-a]pyrimidin-3-yl)amino)methyl)benzoic acid], for which the inhibition constant Ki on human a-thrombin was 10000 to 25000 nM; at MASP-2 (CCP1-CCP2-SP) it was less than 500 nM.

Regarding `Cc1nc(N)ccc1CNC(=O)[C@@H]1CCc2ncc(NCc3cccc4c3OCCO4)c(=O)n21` [Compound 14, (S)-N-((6-amino-2-methylpyridin-3-yl)methyl)-3-(((2,3-dihydrobenzo[b][1,4]dioxin-5-yl)methyl)amino)-4-oxo-4,6,7,8-tetrahydropyrrolo[1,2-a]pyrimidine-6-carboxamide], the Ki on human a-thrombin was 2500 to 10000 nM; at MASP-2 (CCP1-CCP2-SP), less than 500 nM.

On to `Cc1cc(C)cc(CNc2cnc3n(c2=O)[C@H](C(=O)N[C@@H](C)c2ccc(N)nc2)CC3)c1` [Compound 15, (S)—N—((S)-1-(6-aminopyridin-3-yl)ethyl)-3-((3,5-dimethylbenzyl)amino)-4-oxo-4,6,7,8-tetrahydropyrrolo[1,2-a]pyrimidine-6-carboxamide], for which the Ki at human a-thrombin is greater than 25000 nM; at MASP-2 (CCP1-CCP2-SP), less than 500 nM.

With `Cc1nc(N)ccc1CNC(=O)[C@@H]1CCc2ncc(NCc3cccc(C(F)F)c3)c(=O)n21` [Compound 71, (S)—N-((6-amino-2-methylpyridin-3-yl)methyl)-3-((3-(difluoromethyl)benzyl)amino)-4-oxo-4,6,7,8-tetrahydropyrrolo[1,2-a]pyrimidine-6-carboxamide], the Ki on human a-thrombin is 500 to 2500 nM; on MASP-2 (CCP1-CCP2-SP), less than 500 nM.

As to `Cc1cc(C)cc(CNc2cnc3n(c2=O)[C@H](C(=O)NCc2ccc(N)nc2)CC3)c1` [Compound 4, (S)—N-((6-aminopyridin-3-yl)methyl)-3-((3,5-dimethylbenzyl)amino)-4-oxo-4,6,7,8-tetrahydropyrrolo[1,2-a]pyrimidine-6-carboxamide], the Ki at human a-thrombin is 500 to 2500 nM; at MASP-2 (CCP1-CCP2-SP), less than 500 nM.

For the compound `Cc1nc(N)ccc1CNC(=O)[C@@H]1CCc2ncc(NCc3cccc(-n4cccn4)c3)c(=O)n21` [Compound 40, (S)-3-((3-(1H-pyrazol-1-yl)benzyl)amino)-N-((6-amino-2-methylpyridin-3-yl)methyl)-4-oxo-4,6,7,8-tetrahydropyrrolo[1,2-a]pyrimidine-6-carboxamide, trifluoroacetate], the Ki was 500 to 2500 nM on human a-thrombin and less than 500 nM at MASP-2 (CCP1-CCP2-SP).

On to `Cc1cc(Cl)cc(CNc2cnc3n(c2=O)[C@H](C(=O)N[C@@H]2CCc4nc(N)ccc42)CC3)c1` [Compound 83, (S)—N—((R)-2-amino-6,7-dihydro-5H-cyclopenta[b]pyridin-5-yl)-3-((3-chloro-5-methylbenzyl)amino)-4-oxo-4,6,7,8-tetrahydropyrrolo[1,2-a]pyrimidine-6-carboxamide], for which the Ki at human a-thrombin and at MASP-2 (CCP1-CCP2-SP) was less than 500 nM each time.

Take `COc1cc(CNc2cnc3n(c2=O)[C@H](C(=O)NCc2ccc(N)nc2C)CC3)ccc1C` [Compound 45, (S)-N-((6-amino-2-methylpyridin-3-yl)methyl)-3-((3-methoxy-4-methylbenzyl)amino)-4-oxo-4,6,7,8-tetrahydropyrrolo[1,2-a]pyrimidine-6-carboxamide, trifluoroacetate]: the Ki on human a-thrombin is 500 to 2500 nM; at MASP-2 (CCP1-CCP2-SP), less than 500 nM.

In the case of `Cc1nc(N)ccc1CNC(=O)[C@@H]1CCc2ncc(NCc3ccccc3)c(=O)n21` [Compound 59], the Ki at human a-thrombin was 2500 to 10000 nM; at MASP-2 (CCP1-CCP2-SP), less than 500 nM.

On to `Cc1nc(N)ccc1CNC(=O)[C@@H]1CCc2ncc(NCc3ccc(F)cc3)c(=O)n21` [Compound 52, (S)—N-((6-amino-2-methylpyridin-3-yl)methyl)-3-((4-fluorobenzyl)amino)-4-oxo-4,6,7,8-tetrahydropyrrolo[1,2-a]pyrimidine-6-carboxamide], for which the Ki is 2500 to 10000 nM on human a-thrombin and less than 500 nM on MASP-2 (CCP1-CCP2-SP).

Turning to `COc1ccc(C)cc1CNc1cnc2n(c1=O)[C@H](C(=O)NCc1ccc(N)nc1C)CC2` [Compound 9, (S)-N-((6-amino-2-methylpyridin-3-yl)methyl)-3-((2-methoxy-5-methylbenzyl)amino)-4-oxo-4,6,7,8-tetrahydropyrrolo[1,2-a]pyrimidine-6-carboxamide, trifluoroacetate], the Ki on human a-thrombin was 2500 to 10000 nM; on MASP-2 (CCP1-CCP2-SP), less than 500 nM.

Regarding `COc1cccc(CNc2cnc3n(c2=O)[C@H](C(=O)NCc2ccc(N)nc2C)CC3)c1C` [Compound 48, (S)-N-((6-amino-2-methylpyridin-3-yl)methyl)-3-((3-methoxy-2-methylbenzyl)amino)-4-oxo-4,6,7,8-tetrahydropyrrolo[1,2-a]pyrimidine-6-carboxamide, trifluoroacetate], the Ki was 500 to 2500 nM on human a-thrombin and less than 500 nM at MASP-2 (CCP1-CCP2-SP).
